Patent US5986131A, “RXR selective ligands” (Hoffmann-La Roche Inc., priority 1997, dated 1999)
Where two headings read alike, the source gives them in different places.

Experiments:
[1] = tested on: Hamster Ear Sebaceous Gland; assay: Effect on size of sebaceous glands of Golden Syrian hamsters; assay type: in vivo; set-up: Sebaceous Gland Size: unit not given here; settings: 4 weeks topical dosing
Procedure: Charles River Golden Syrian male hamsters were given the desired dose in acetone. The compounds were stored at 4° C. protected from light. Fresh solutions were made up weekly.
Hamsters were dosed daily for five days, rested for two days, and dosed again for five days until 20 doses were given. The volume of solution was 50 microliters per ear.
Hamsters were sacrificed by CO2 inhalation, and the ears removed for histological evaluation. One ear was removed and the ventral surface separated from the rest of the ear. A 2 mm punch was removed 5 mm from the tip of the ear and stained in 0.1 % Sudan Black B dissolved in 100% propylene glycol overnight. After destaining, the size of sebaceous glands was quantified with a Donsanto Image Analysis System.
Data are given as the average area of 80-120 sebaceous glands per dose, as percent of the control (solvent-treated) sections.

Rhino mouse utricles = assay: Rhino mouse utricle reduction activity; assay type: in vivo, Rhino mice; settings: topical; for Utricle Size: 3 weeks; for Utricle size % Change from Control: ns = not statistically significant, others p<0.05
Procedure: Compounds were dissolved in 100% acetone and stored at 4° C. for the duration of the experiment under nitrogen. […] One day after the last dose, the mice were sacrificed by CO2 inhalation. […] The epidermis was then separated from the dermis.
The samples were kept in each of the above solutions for 2 hours. The skin samples were removed from the xylene and mounted on glass microscope slides. Image analysis, using the Ultimage image analysis software, was used to determine the mean diameter and area of utricles. Approximately 5 fields per sample were examined, for an average of 150 utricles per mouse measured.

RXRα [2] = biological target: T1, RXRα (Homo sapiens, UniProt P19793); assay: RXRα binding; settings: Table 2
T1 sequence (P19793 1-462): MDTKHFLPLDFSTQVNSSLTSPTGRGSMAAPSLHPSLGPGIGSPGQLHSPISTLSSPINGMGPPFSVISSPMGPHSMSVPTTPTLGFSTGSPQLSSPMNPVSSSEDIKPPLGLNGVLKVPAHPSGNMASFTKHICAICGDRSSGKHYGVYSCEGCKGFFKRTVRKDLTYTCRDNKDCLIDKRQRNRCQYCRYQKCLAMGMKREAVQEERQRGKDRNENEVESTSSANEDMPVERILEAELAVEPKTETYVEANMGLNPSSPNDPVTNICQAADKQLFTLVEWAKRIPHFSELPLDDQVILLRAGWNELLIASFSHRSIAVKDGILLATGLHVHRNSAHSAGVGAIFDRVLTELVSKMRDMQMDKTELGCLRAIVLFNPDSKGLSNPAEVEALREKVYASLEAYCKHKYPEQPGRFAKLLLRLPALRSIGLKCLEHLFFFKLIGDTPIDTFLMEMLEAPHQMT
From the text: (§1) Methods essentially as described in those publications were used to determine the binding and transactivation properties of retinoids reported in the Examples herein.

RXRα [3] = biological target: T1, RXRα; assay: RXRα activation (transactivation); assay type: cell-based; settings: Table 1; read-out: Activation ED50, RXRα
From the text: as §1

RARα = biological target: T2, RARα (Homo sapiens, UniProt P10276); assay: RARα activation (transactivation); assay type: cell-based
T2 sequence (P10276 1-462): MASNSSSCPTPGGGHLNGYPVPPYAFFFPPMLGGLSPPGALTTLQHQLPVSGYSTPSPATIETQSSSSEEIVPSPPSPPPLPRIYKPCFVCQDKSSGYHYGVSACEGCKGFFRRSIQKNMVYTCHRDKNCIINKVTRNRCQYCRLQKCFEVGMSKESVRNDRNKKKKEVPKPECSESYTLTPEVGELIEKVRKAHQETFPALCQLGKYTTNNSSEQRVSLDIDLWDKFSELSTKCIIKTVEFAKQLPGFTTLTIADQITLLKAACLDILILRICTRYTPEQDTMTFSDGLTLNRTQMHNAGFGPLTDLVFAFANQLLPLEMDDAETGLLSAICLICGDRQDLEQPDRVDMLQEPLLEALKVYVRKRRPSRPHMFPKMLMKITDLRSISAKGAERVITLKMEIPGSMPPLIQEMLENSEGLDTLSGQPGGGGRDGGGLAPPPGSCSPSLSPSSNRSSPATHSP
From the text: as §1

HL-60 cells = assay: HL-60 differentiation (NBT reduction); assay type: cell-based, human
Procedure: Under the influence of retinoids, HL-60 cells (a human myeloid leukemia cell line) differentiate into granulocytes. This differentiation of HL-60 cells into granulocytes is mediated by RARα, and so provides the basis for the use of retinoids to treat leukemia.
Retinoid-induced differentiation of HL-60 cells was assayed by measuring their oxidative burst potential via the reduction of NBT (Nitroblueterstazolium) [Pick et al., J. Reticuloendothelial Soc., 30:581-593 (1981)].
HL-60 cells were maintained in RPMI 1640 medium supplemented with 10% FCS, 2mM L-glutamine, ImM sodium pyruvate, 1% non-essential amino acids, 50 U/ml penicillin and 50 μg/ml streptomycin (=RPMI/FCS).
30,000 cells/[…] of RPMI/FCS were seeded into flat-bottomed microtiter wells. 10 μl of retinoids diluted in complete medium were added at the same time to yield final concentrations betweeen 10^-11 and 10^-6 M (stock solutions of 10^-2 M in ethanol were kep at -20° C. and protected from light). After 3 days, the medium was removed with a multichannel pipette and replaced with 100 μl of NBT solution (1 mg/ml in PBS with 200 nM phorbol myristate acetate (PMA). Following an additional hour incubation at 37° C. the NBT solution was removed and 100 μl of 10% SDS in 0.01 N HCl was added. The amount of the reduced NBT was quantified photometrically at 540 nm using an automated plate reader. The mean of 3 wells was calculated. S.E.M. were between 5 and 10%.

SMILES: CC1=C(/C=C/C2=C(/C=C/C(C)=C/C(=O)O)CCCC2)C(C)(C)CCC1 [Example 4, (2E,4E)-3-Methyl-5-(2-((E)-2(2,6,6-trimethyl-1-cyclohexen-1-yl)ethenyl)-1-cyclohexen-1-yl)-2,4-pentadienoic acid]
- Sebaceous Gland Size ([1]; 1 μg/day): 13237 ± 1491
- Sebaceous gland size % Change from Control ([1]; 1 μg/day, ns = not statistically significant): -20%
- Sebaceous Gland Size ([1]; 10 μg/day): 17046 ± 4667
- Sebaceous gland size % Change from Control ([1]; 10 μg/day, ns = not statistically significant): +3%
- Sebaceous Gland Size ([1]; 100 μg/day): 13043 ± 1577
- Sebaceous gland size % Change from Control ([1]; 100 μg/day): -21%
- Utricle Size (Rhino mouse utricles; 0.1 μg/day): 9843 ± 565 μm^2 / utricle
- Utricle size % Change from Control (Rhino mouse utricles; 0.1 μg/day): +1%
- Utricle Size (Rhino mouse utricles; 1 μg/day): 9491 ± 507 μm^2 / utricle
- Utricle size % Change from Control (Rhino mouse utricles; 1 μg/day): -3%
- Utricle Size (Rhino mouse utricles; 10 μg/day): 8951 ± 964 μm^2 / utricle
- Utricle size % Change from Control (Rhino mouse utricles; 10 μg/day): -8%
- Utricle Size (Rhino mouse utricles; 100 μg/day): 5916 ± 992 μm^2 / utricle
- Utricle size % Change from Control (Rhino mouse utricles; 100 μg/day): -39%
- IC50 (RXRα [2]): 0.092 µM
- EC50 (RXRα [3]): 0.0017 µM
- EC50 (RARα; Table 1, read-out: Activation ED50, RARα): > 10 µM
- EC50 (RARα; Table 2, read-out: RARα activation ED50): > 10 µM
- activity as inducer of HL-60 differentiation compared with all-trans retinoic acid (HL-60 cells; FIG. 1): clearly less active
- HL-60 differentiation activity by itself at potentiating concentrations (HL-60 cells; FIGS. 2 and 3, alone): not active by itself
- activity as inducer of HL-60 differentiation (HL-60 cells; ×10^-6 M, alone): virtually inactive
